Source: article PMC5618418, “Pharmacokinetics of Jaspine B and Enhancement of Intestinal Absorption of Jaspine B in the Presence of Bile Acid in Rats” (Marine Drugs, 2017)
Where two headings read alike, the source gives them in different places.

Assay: Pharmacokinetics after oral administration with or without taurocholate in control and bile-depleted rats
Assay type: in vivo
Conditions: male, rat, plasma, 30 mg/kg; for bioavailability: oral 30 mg/kg vs IV 10 mg/kg, read-out: BA (oral bioavailability); for AUC(0-inf) / MRT / Tmax / half-life / AUC(0-t) / Cmax: oral 30 mg/kg; for AUC(0-t): read-out: AUC12h
Method: Male SD rats (aged 8–9 weeks, weighing 250–300 g) were obtained from Samtako Bio Korea, Inc. (Osan, Korea). The rats were acclimatized for 1 week in a temperature-controlled room (23 ± 2 °C) with a 12-h illumination cycle. Food and water were given ad libitum. All animal procedures were approved by the Animal Care and Use Committee of the Kyungpook National University (No. 2015-0064). The rats were fasted for at least 12 h before the oral administration of drugs.
The femoral artery, femoral vein, and bile duct were cannulated with polyethylene tubes (PE-50 and PE-10; Jungdo, Seoul, Korea) under light anesthesia with isoflurane.
For oral dosing, Jaspine B was dissolved in a vehicle containing DMSO: PEG400: saline (2:4:4, v/v/v) and was administered by oral gavages at a single dose of 30 mg/kg of Jaspine B concomitantly with or without 60 mg/kg TC (vehicle volume, 3 mL/kg) to the control and bile-depleted rats. Bile depletion was accomplished with 4 h drainage of bile through the bile cannula, which was cannulated to the bile duct using PE-10 tubing.
Blood samples (approximately 250 μL each) were collected from the femoral artery at 0, 0.25, 0.5, 1, 1.5, 2, 4, 8, and 12 h following the oral administration of Jaspine B. After centrifugation of blood samples at 13,200 rpm for 10 min, plasma samples (50 μL) were collected and stored at −80 °C until the analysis by liquid chromatography tandem-mass spectrometry (LC-MS/MS). Aliquots (50 μL) of plasma samples were added to 250 μL of acetonitrile containing 0.5 ng/mL of berberine (an internal standard). After vortexing for 10 min and centrifugation at 13,200 rpm for 5 min, an aliquot (10 μL) of the supernatant was injected directly into the LC-MS/MS system. The standard curve range was 5–2000 ng/mL and the concentrations of quality control (QC) samples were 60, 300, and 2000 ng/mL.
Pharmacokinetic parameters were determined using a non-compartmental analysis (WinNonlin® 2.0; Pharsight, Mountain View, CA, USA). Maximum plasma concentration (Cmax) and time to reach Cmax (Tmax) values were obtained from plasma concentration-time curves. The area under the plasma concentration–time curve from zero to infinity (AUC) was calculated using the trapezoidal-extrapolation method. For extrapolation, the area from the last data point to infinity was estimated by dividing the […].
However, in the case of bile-depleted rats, AUC∞ and T1/2 were not calculated because the elimination rate constant could not be obtained.

[1] = SD, bile depletion + TC 60 mg/kg

Molecule CCCCCCCCCCCCCC[C@@H]1OC[C@H](N)[C@@H]1O [Jaspine B] has a bioavailability [1] of 23.5%, a bioavailability (SD, bile-depleted rats, from AUC12h) of 1.6% and a bioavailability (SD, control + TC 60 mg/kg) of 41.2%. The bioavailability (SD, control rats) was 6.2%, the AUC(0-inf) [1] was 1200 ± 254 ng·h/mL and the MRT [1] was 4.9 ± 0.5 h. The Tmax [1] was 1 ± 0.5 h, the half-life [1] was 7.2 ± 1.5 h and the AUC(0-t) [1] was 828 ± 180 ng·h/mL. It also gave an MRT (SD, bile-depleted rats) of 6.1 ± 0.3 h, a Tmax (SD, bile-depleted rats) of 9.3 ± 2.3 h and an AUC(0-t) (SD, bile-depleted rats) of 80.3 ± 42.7 ng·h/mL. It also gave an AUC(0-inf) (SD, control + TC 60 mg/kg) of 2100 ± 419 ng·h/mL, a Cmax (SD, control + TC 60 mg/kg) of 174 ± 13 ng/mL and an MRT (SD, control + TC 60 mg/kg) of 5.5 ± 0.03 h. For the same molecule, the Tmax (SD, control + TC 60 mg/kg) was 3.3 ± 2.3 h, the half-life (SD, control + TC 60 mg/kg) was 6.4 ± 2.8 h and the AUC(0-t) (SD, control + TC 60 mg/kg) was 1406 ± 4.3 ng·h/mL. The AUC(0-inf) (SD, control rats) was 314 ± 76.1 ng·h/mL, the MRT (SD, control rats) was 4.9 ± 0.4 h and the Tmax (SD, control rats) was 2.5 ± 1.3 h. The half-life (SD, control rats) was 5.5 ± 1.1 h, the AUC(0-t) (SD, control rats) was 241 ± 57.8 ng·h/mL and the Cmax (Sprague-Dawley, bile depletion + TC 60 mg/kg) was 163 ± 28.4 ng/mL. It also gave a Cmax (Sprague-Dawley, bile-depleted rats) of 8.5 ± 2.8 ng/mL and a Cmax (Sprague-Dawley, control rats) of 36.3 ± 11.3 ng/mL.
